Laboratory results: patent US7713996B2, “Indolyl derivatives which are L-CPT1 inhibitors” (Hoffmann-La Roche Inc., priority 2005, dated 2010)

Molecular target: T1, L-CPT1 (Homo sapiens, UniProt P50416)
T1 construct: made in house; host or cells: Pichia pastoris strain X-33
T1 sequence (P50416 1-773): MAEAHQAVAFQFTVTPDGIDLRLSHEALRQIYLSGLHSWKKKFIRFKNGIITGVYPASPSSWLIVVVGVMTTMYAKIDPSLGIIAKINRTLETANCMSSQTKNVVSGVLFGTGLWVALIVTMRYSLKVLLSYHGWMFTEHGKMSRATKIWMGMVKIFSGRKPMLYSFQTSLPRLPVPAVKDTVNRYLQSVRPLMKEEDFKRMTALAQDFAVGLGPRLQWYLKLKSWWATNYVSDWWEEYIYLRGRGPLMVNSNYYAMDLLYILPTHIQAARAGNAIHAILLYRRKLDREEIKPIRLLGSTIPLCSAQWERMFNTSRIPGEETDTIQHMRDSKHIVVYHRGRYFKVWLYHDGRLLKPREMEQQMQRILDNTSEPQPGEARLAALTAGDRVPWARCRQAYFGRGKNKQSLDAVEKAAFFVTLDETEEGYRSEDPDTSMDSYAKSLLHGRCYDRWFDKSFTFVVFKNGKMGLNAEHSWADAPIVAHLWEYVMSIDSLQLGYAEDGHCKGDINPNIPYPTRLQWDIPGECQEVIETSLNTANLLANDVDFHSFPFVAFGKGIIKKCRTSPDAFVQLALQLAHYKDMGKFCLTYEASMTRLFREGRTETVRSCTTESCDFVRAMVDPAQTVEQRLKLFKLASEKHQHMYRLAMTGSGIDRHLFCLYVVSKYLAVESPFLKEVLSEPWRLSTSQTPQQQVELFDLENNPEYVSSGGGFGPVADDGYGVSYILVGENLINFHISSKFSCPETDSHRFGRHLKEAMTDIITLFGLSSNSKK
Experiment: L-CPT1 inhibition, spectrophotometric CPT activity assay with DTNB (Ellman's reagent)
Type: biochemical
Details: human liver CPT1 expressed in P. pastoris, cell extracts; carnitine 500 μM, palmitoyl-CoA 80 μM, DTNB 300 μM, pH 7.4
Procedure: The following tests were carried out in order to determine the activity of the compounds of the present invention. Background information on the performed assays can be found in: Jackson et al., 1999, Biochem. J. 341, 483-489 and Jackson et al., 2000, J. Biol. Chem. 275, 19560-19566.
Human liver and muscle CPT1 cDNAs and rat CPT2 cDNA were subcloned in pGAPZB or pGAPZA, respectively. These plasmids were used to transform P. pastoris strain X-33 via electroporation after the preparation of electrocompetent cells. High copy number clones were selected where necessary using 0.5 or 1 mg/ml Zeocin. Cultures for activity measurements were induced for 16 h in YPD medium (1% yeast extract, 2% peptone, 2% glucose). Crude cell extracts were prepared by disrupting the cells with glass beads or French Press, depending on fermenter sizes. After centrifugation, the cell-free extracts were resuspended in cell breaking buffer (50 mM Tris, pH7.4, 100 mM KCl, 1 mM EDTA) in the presence of a protease inhibitor cocktail, before aliquoting and freezing at −20° C.
CPT activity was measured using a spectrophotometric assay using 5,5′-dithio-bis-(2-nitrobenzoic acid) (DTNB) also called Ellman's reagent. The HS-CoA released on the formation of acylcarnitine from carnitine (500 μM) and palmitoyl-CoA (80 μM) reduced DTNB (300 μM) forming 5-mercapto-(2-nitrobenzoic acid) which absorbed at 410 nm with a molar coefficient extinction of 13600 M^−1·cm^−1. The assay buffer contained 120 mM KCl, 25 mM Tris, pH 7.4, 1 mM EDTA. This assay was used for the identification of selective inhibitors of the liver CPT1 isoform versus the muscle CPT1 and CPT2 isoforms.

| SMILES | IC50 [nM] |
| --- | --- |
| O=C(Nc1ccc(C(=O)O)c(Cl)c1)c1ccc2c(c1)N(S(=O)(=O)c1cccc(Cl)c1)CC2 [Example 1, 2-Chloro-4-{[1-(3-chloro-benzenesulfonyl)-2,3-dihydro-1H-indole-6-carbonyl]-amino}-benzoic acid] | 160 |
| COc1ccc(Cl)cc1S(=O)(=O)N1CCc2ccc(C(=O)Nc3ccc(C(=O)O)c(F)c3)cc21 [Example 12, 4-{[1-(5-Chloro-2-methoxy-benzenesulfonyl)-2,3-dihydro-1H-indole-6-carbonyl]-amino}-2-fluoro-benzoic acid] | 72.2 |
| COc1ccc(Cl)cc1S(=O)(=O)N1CCc2ccc(C(=O)Nc3ccc(C(=O)O)cc3)cc21 [Example 31, 4-{[1-(5-Chloro-2-methoxy-benzenesulfonyl)-2,3-dihydro-1H-indole-6-carbonyl]-amino}-benzoic acid] | 20.6 |
